The values below come from article PMC11314205, “Incorporation of an Isohexide Subunit into the Endochin-like Quinolone Scaffold” (Molecules, 2024).

In one data set the test system is D6. Also on record: method as in PMID 24720377. To be noted: strain D6; cited from earlier work.
A further data set has as its system Dd2. Also on record: method as in PMID 24720377. To be noted: strain Dd2; cited from earlier work.
A further data set has as its system Tm90-C2B. Also noted: method as in PMID 24720377. As to conditions: strain Tm90-C2B; cited from earlier work.
Details of data set [1]: method as in PMID 23515079. To be noted: cited from earlier work.
The subject of data set [2] is human hepatoma-derived HepG2 cells. Also on record: method as in PMID 24720377. As to conditions: read-out: Cytotox. IC50; cited from earlier work.
Data set [3] has as its system chloroquine-sensitive Plasmodium falciparum strain 3D7 (MRA-102). The experiment in a line: In vitro screening against chloroquine-sensitive P. falciparum 3D7. The data set is classed as cell-based. The procedure: (§1) The ELQs 14–17 were tested against the chloroquine-sensitive Plasmodium falciparum strain 3D7 (MRA-102), as provided by the MR4 Unit of the American Type Culture Collection (ATCC, Manassas, VA, USA). Details of the assay have been previously published. Cytotoxicity IC50 values for 14–17 were obtained on human BJ fibroblasts as previously described. [table]

Data set [4] can be described thus: Cytotoxicity on BJ fibroblasts, CTG reagent. Format: cell-based. To be noted: human BJ fibroblasts, 72 h exposure at 37 °C, read-out: Cytotox. IC50. As to the method:
as §1

The nature of data set [5]: Kinetic (report: thermodynamic) solubility in pH 7.4 phosphate buffer, quantitative LC-MS. As to conditions: 23 °C. Format: physicochemical.
Assay in data set [6]: as above
The data set is classed as physicochemical. As to conditions: phosphate buffer pH 7.4, room temperature, LC-MS (supplementary report); for solubility at 20 h: phosphate buffer, 23 °C, pH 7.4, aqueous buffer, thermodynamic from solid. The procedure:
Title: Thermodynamic Solubility Study in Phosphate Buffer 7.4 Date: 02/24/2023 […]
The goal of this study is to determine the thermodynamic solubility values for compounds: JS -13, JS-14, JS-17 and JS-18 in phosphate buffer pH 7.4.
Compound ID Solubility (µM) Solubility (mg/mL)
The scope of the thermodynamic (equilibrium) solubility experiment is to investigate the solubility of the compounds in a saturated solution. For this method, phosphate buffer is added to solid compound and mixed at room temperature for […] to ensure that equilibrium is achieved. To determine concentrations to generate calibration curves and for the equilibrated compounds (in buffer) a general LC-MS method was developed. The method includes a high-resolution separation by a UPLC unit as well as a high sensitivity ion detection by a mass spectrometer equipped with an electrospray ionization probe. For calibration curves the compounds were dissolved in DMSO and diluted by ACN. The supernatant of the equilibrated samples, after a 2-step centrifugation process, were also diluted by ACN to ensure full solubilization.
(1 picture or pasted object on this page, not shown here)
The experiment was carried out as recommended by AstraZeneca’s Mechanistic Biology & Profiling, Discovery Sciences, R&D group (AstraZeneca, Gothenburg, Sweden). The method was published in ASSAY and Drug Development Technologies; Title: “A Fully Integrated Assay Panel for Early Drug Metabolism and […]
• The experiment was performed on December 3, 2022
A Shimadzu LC-40D XR HPLC system equipped with a PDA detector (Model: SPD-M40) and connected to an LCMS-2020 mass spectrometer was utilized for determining sample concentrations. For HPLC separation an XBridge C18 column (4.6x50 mm, […] particle size) from Waters Inc. was used, the column oven temperature was set at 40°C. To determine the concentration of the compounds, eluent A containing 0.1% trifluoroacetic acid (TFA) in water, eluent B containing 0.1% TFA in acetonitrile and a linear gradient (5-100% B in 3 min) were utilized. Molecular ions (MH+) were generated by combined ESI and APCI ionization methods and collected by a DUIS detector. The mass spectrometer was calibrated by standards provided by Shimadz u Scientific Instruments. Single ion monitoring (SIM) methods were used to maximize sensitivity for each compound as described in Table […]
Compound ID Primary Ion Secondary Ion Note
+ + 414.15+ is identical to MH+ generated
• To establish calibration curves, the weighted compounds were dissolved in 100 µL of dimethyl sulfoxide (DMSO) and diluted by 400 µL of acetonitrile (ACN). The stock solution was further diluted by ACN (5x, in 5 steps). For all LC-MS experiments 5 µL sample was injected. To perform equilibration studies, 500 µL phosphate buffer was added to each weighted compound. The results slurries were stirred at room temperature for 20 hr. After equilibration, the samples were transferred to […]
Eppendorf tubes and centrifuged for 30 min at 2,000 x g. 200 µL of the supernatant of each sample was transferred and centrifuged again f or 30 min at 2,000 x g. Dilution and LC-MS analyses were performed as described for the calibration curves.
ACN, DMSO and HPLC quality water were purchased from MilliporeSigma Inc.
TFA (99.9% purity) was from Chem-Impex International Inc.
• The data was archived in the MD&S Laboratory electronic notebook (ChemCart, DeltaSoft Inc.) on […]
• Data processing software used: Microsoft Office 365 – Excel.
3.1 Structures, molecular weights
Compound Chemical Exact SMILE
[C@]4([H])OC3)C=C2)=C(C)NC5=CC=C(Cl)C=C51
[H])OC3)C=C2)=C(C)NC5=CC=C(Cl)C=C51
4([H])OC3)C=C2)=C(C)NC5=CC=C(Cl)C=C51
C@]4([H])OC3)C=C2)=C(C)NC5=CC=C(Cl)C=C51
Table 2. Compound IDs, chemical formulas, exact (monoisotopic) molecular weights, SMILE notations

[7] abbreviates: chloroquine-sensitive P. falciparum strain 3D7, read-out: EC50.
The mark [8] stands for this setting: P. falciparum strain 3D7, read-out: EC50 (antimalarial potency).

Broadly, the EC50 is the concentration at which the effect is half-maximal. As a reminder, the IC50 is the midpoint of a concentration-inhibition curve. What is called solubility (thermodynamic) is the concentration in solution at equilibrium with solid. For orientation: melting point means the temperature, or range, at which the solid turns liquid.

≈ marks a conversion by molar mass, not a printed value. Entries after “also recorded” stand apart in the source; their conditions may differ. Where two headings read alike, the source gives them in different places.

Take `COc1cc2[nH]c(C)c(-c3ccc(Oc4ccc(OC(F)(F)F)cc4)cc3)c(=O)c2cc1Cl` [C00001]: the EC50 with D6 was 2.2 nM; in the data set with Dd2, 2.5 nM; in the data set with Tm90-C2B, 1.4 nM. Besides, the “Kinetic Solubility” value in data set [1] is 16 µM. In addition, the IC50 in data set [2] was more than 10000 nM.

With `Cc1[nH]c2ccc(Cl)cc2c(=O)c1-c1ccc(Oc2ccc(OC(F)(F)F)cc2)cc1` [C00002], the EC50 in the data set on D6 is 3.2 nM; in the data set on Dd2, 5.6 nM; with Tm90-C2B, 2.3 nM. For the same compound, the IC50 in [2] is more than 10000 nM.

`CC(=O)OC1COC2C(Oc3ccc(-c4c(C)[nH]c5ccc(Cl)cc5c4=O)cc3)COC12` (centres unmarked) [C00003]: in data set [3] (setting [7]), the EC50 was more than 1000 nM. Moreover, in data set [4], the IC50 at 72 h is more than 100000 nM.

Consider `Cc1[nH]c2ccc(Cl)cc2c(=O)c1-c1ccc(OC2COC3C(O)COC23)cc1` (centres unmarked) [C00004], for which the EC50 in [3] (setting [7]) is more than 1000 nM. Moreover, the IC50 at 72 h in data set [4] is more than 100000 nM. In addition, the thermodynamic solubility at 20 h in data set [5] turned out to be 95 µM (≈ 39.3 µg/mL).

As to `COC1COC2C(Oc3ccc(-c4c(C)[nH]c5ccc(Cl)cc5c4=O)cc3)COC12` (centres unmarked) [C00005], in data set [3] (setting [7]), the EC50 is more than 1000 nM. The IC50 at 72 h in [4] was more than 100000 nM. In addition, in [5], the thermodynamic solubility at 20 h turned out to be 22 µM (≈ 9.41 µg/mL).

As for `COCCOC1COC2C(Oc3ccc(-c4c(C)[nH]c5ccc(Cl)cc5c4=O)cc3)COC12` (centres unmarked) [C00006], the EC50 in data set [3] (setting [7]) is more than 1000 nM. Further, the IC50 at 72 h in [4] was more than 100000 nM. The compound further gave a solubility (thermodynamic) at 20 h in data set [5] of 127 µM (≈ 59.9 µg/mL).

For `CC(=O)O[C@H]1CO[C@H]2[C@@H]1OC[C@@H]2Oc1ccc(-c2c(C)[nH]c3ccc(Cl)cc3c2=O)cc1` [Compound 14, (3S,3aR,6S,6aR)-6-(4-(6-Chloro-2-methyl-4-oxo-1,4-dihydroquinolin-3-yl)phenoxy)hexahydrofuro[3,2-b]furan-3-yl Acetate], the melting point is 298 to 299 °C. The EC50 in data set [3] (setting [8]) is more than 1000 nM. In addition, the “Solubility (M)” value in data set [6] (listed as JS-13) was “Unstable in buffer; also recorded: hydrolyzed under equilibrating conditions”.

`Cc1[nH]c2ccc(Cl)cc2c(=O)c1-c1ccc(O[C@H]2CO[C@H]3[C@@H]2OC[C@@H]3O)cc1` [Compound 15, 6-Chloro-3-(4-(((3S,3aR,6S,6aR)-6-hydroxyhexahydrofuro[3,2-b]furan-3-yl)oxy)phenyl)-2-methylquinolin-4(1H)-one]: the EC50 in data set [3] (setting [8]) is more than 1000 nM. The solubility at 20 h was 95 µM in data set [6] (read-out: Solubility) and 0.039 mg/mL in [6] (read-out: Solubility (mg/mL)).

In the case of `CO[C@H]1CO[C@H]2[C@@H]1OC[C@@H]2Oc1ccc(-c2c(C)[nH]c3ccc(Cl)cc3c2=O)cc1` [Compound 16, 6-Chloro-3-(4-(((3S,3aR,6S,6aR)-6-methoxyhexahydrofuro[3,2-b]furan-3-yl)oxy)phenyl)-2-methylquinolin-4(1H)-one], the EC50 in [3] (setting [8]) was more than 1000 nM. For the same compound, the figures for the solubility at 20 h in [6] (read-out: Solubility) and in data set [6] (read-out: Solubility (mg/mL)) were 22 µM and 0.009 mg/mL, respectively.

With `COCCO[C@H]1CO[C@H]2[C@@H]1OC[C@@H]2Oc1ccc(-c2c(C)[nH]c3ccc(Cl)cc3c2=O)cc1` [Compound 17, 6-Chloro-3-(4-(((3S,3aR,6S,6aR)-6-(2-methoxyethoxy)hexahydrofuro[3,2-b]furan-3-yl)oxy)phenyl)-2-methylquinolin-4(1H)-one], the concentration for a half-maximal effect (EC50) in data set [3] (setting [8]) is more than 1000 nM. The figures for the solubility at 20 h in data set [6] (read-out: Solubility) and in data set [6] (read-out: Solubility (mg/mL)) were 127 µM and 0.06 mg/mL, respectively.
